The values that follow come from patent publication US7723467B2, “Antimicrobial compounds” (New England Medical Center Hospitals, Inc., priority 2000, dated 2010).

Where two headings read alike, the source gives them in different places. Non-standard residues stand in square brackets, D forms with d. No end group written: not given here. Some results are limits rather than exact numbers.

Holding throughout (format): cell-based
Assay [1] has as its system Staphylococcus aureus NCTC 4163.
Method: (§1) The assays are standardized by using a predictable predetermined number of cells, and the lowest observed concentration of the agent that inhibits growth is defined as the minimum inhibitory concentration (MIC).
(§2) Antimicrobial activity, specifically antibacterial activity, was assayed using cells of each of Staphylococcus aureus NCTC 4163, Escherichia coli NCTC 8196, Pseudomonas aeruginosa NCTC 6749, Proteus vulgaris NCTC 4635, and Enterococcus faecalis ATCC 19212. To determine the minimum inhibitory concentration (MIC), the microdilution broth method, well-known to one of ordinary skill in the art of microbiology, was used. Cells of each bacterial strain were collected in the logarithmic phase of growth, and resuspended in nutrient broth. The concentration of colony-forming units (CFU) per milliliter was quantified by measuring absorption of light at 600 nm (A600).
(§3) Peptide samples were dissolved in nutrient broth (pH 7.0) and diluted serially. The sample solution (100 μl) was mixed with the diluted bacterial suspension (100 μl). Mixtures containing 105 bacterial CFU, and from 1% to 0.003% of test peptides, were incubated for 24 h at 37° C. […] The indolicidin antibacterial property with cells of S. aureus was used as a positive control reference.
Assay [2] concerns Escherichia coli NCTC 8196.
Method: as §1, §2, §3
The test system of assay [3] is Candida albicans NCTC 10231.
Method: Anti-fungal activity is similarly assayed, using log phase vegetative fungal cells.
(§4) Antifungal activity was assayed using Candida albicans NCTC 10231 as a target fungus. Candida cells in the logarithmic phase of growth were suspended in dextrose broth medium at a density of 10^5 CFU/ml. A mixture of the sample solution (100 μl) and the fungal suspension (100 μl) was incubated for 24 h at 37° C.
For assay [4], the system named is Enterococcus faecalis ATCC 19212.
Method: as §1, §2, §3
For assay [5], the system named is Proteus vulgaris NCTC 4635.
Method: as §1, §2, §3
The subject of assay [6] is Pseudomonas aeruginosa NCTC 6749.
Method: as §1, §2, §3
A further assay relates to microorganisms tested. The assay is described as follows: Antimicrobial activity across the microorganisms tested. The conditions noted are these: compared with SP.
The next assay deals with microorganism. The assay is described as follows: Mixing experiments of SP with SP antagonist.
The mark [7] stands for this setting: 100% inhibition of growth, 24 h at 37° C., nutrient broth pH 7.0.
Setting [8] is: dextrose broth, 24 h at 37° C., turbidity.

Method for microorganisms tested: as §2, §3, §4

For “Ile-Leu-Pro-Trp-Lys-Trp-Pro-Trp-Trp-Pro-Trp-Arg-Arg-NH2 (ILPWKWPWWPWRR-NH2; listed as Homo sapiens) [Indolicidin, reference compound]”, the “Minimal Inhibitory Concentration MIC (%) S. aureus” value in assay [1] (setting [7]) is 0.003%. Besides, the “Minimal Inhibitory Concentration MIC (%) E. coli” value in assay [2] (setting [7]) came to 0.007%. Moreover, the “Minimal Inhibitory Concentration MIC (%) C. albicans” value in assay [3] (setting [8]) is recorded as 0.015%.
In the case of “Arg-D-Pro-Lys-Pro-Gln-Gln-D-Trp-Phe-D-Trp-Leu-MetNH2 (R[dP]KPQQ[dW]F[dW]LM-NH2; N-terminus assumed; SMILES CSCC[C@H](NC(=O)[C@H](CC(C)C)NC(=O)[C@@H](Cc1c[nH]c2ccccc12)NC(=O)[C@H](Cc1ccccc1)NC(=O)[C@@H](Cc1c[nH]c2ccccc12)NC(=O)[C@H](CCC(N)=O)NC(=O)[C@H](CCC(N)=O)NC(=O)[C@@H]1CCCN1C(=O)[C@H](CCCCN)NC(=O)[C@H]1CCCN1C(=O)[C@@H](N)CCCNC(=N)N)C(N)=O; listed as Homo sapiens) [SEQ ID NO: 2]”, the “Minimal Inhibitory Concentration MIC (%) S. aureus” value in assay [1] (setting [7]) is on record as 0.13%. In assay [2] (setting [7]), the “Minimal Inhibitory Concentration MIC (%) E. coli” value came to 0.13%. Also, the “Minimal Inhibitory Concentration MIC (%) E. faecalis” value in assay [4] (setting [7]) stood at 0.13%. Besides, the “Minimal Inhibitory Concentration MIC (%) P. vulgaris” value in assay [5] (setting [7]) stood at 0.13%. For the same substance, the “Minimal Inhibitory Concentration MIC (%) P. aeruginosa” value in assay [6] (setting [7]) came to 0.13%. In addition, the “potency against C. albicans relative to SP or bradykinin” value in assay [3] was “approximately 10 times”. Also, in assay [3] (cells of C. albicans), the “activity compared with indolicidin” value was “comparable to that of indolicidin”. The “Minimal Inhibitory Concentration MIC (%) C. albicans” value in assay [3] (setting [8]) is 0.03%. Moreover, in the assay on microorganisms tested, the “MIC fold higher (weaker potency) on the other bacteria tested” value is 10- to 20 fold.
“Arg-Pro-Lys-Pro-Gln-Gln-Phe-Phe-Gly-Leu-MetNH2 [SEQ ID NO: 1]”: in assay [1] (setting [7]), the “Minimal Inhibitory Concentration MIC (%) S. aureus” value is listed as 0.007%. In addition, in assay [1] (cells of S. aureus), the “antimicrobial potency compared with indolicidin” value is listed as “equally potent to indolicidin”. In addition, the “Minimal Inhibitory Concentration MIC (%) E. coli” value in assay [2] (setting [7]) is 0.06%. For the same substance, the “Minimal Inhibitory Concentration MIC (%) E. faecalis” value in assay [4] (setting [7]) was determined as 0.13%. Further, the “Minimal Inhibitory Concentration MIC (%) P. vulgaris” value in assay [5] (setting [7]) came to 0.13%. In assay [6] (setting [7]), the “Minimal Inhibitory Concentration MIC (%) P. aeruginosa” value is 0.13%. Besides, in assay [3], the “antifungal properties against C. albicans” value was “found to have antifungal properties”. Also, the “Minimal Inhibitory Concentration MIC (%) C. albicans” value in assay [3] (setting [8]) is 0.25%. Besides, the “blocking of the antimicrobial effect by the presence of SP antagonist” value in the assay on microorganism is reported as “not to be blocked”.
For the substance “RPPGFSPFR [Bradykinin, reference compound]”, the “Minimal Inhibitory Concentration MIC (%) S. aureus” value in assay [1] (NCTC 4163, 24 h, pH 7) amounted to 0.5%. Moreover, in assay [2] (NCTC 8196, 24 h, pH 7), the “Minimal Inhibitory Concentration MIC (%) E. coli” value is 0.5%. The “Minimal Inhibitory Concentration MIC (%) E. faecalis” value in assay [4] (ATCC 19212, 24 h, pH 7) is listed as >1%. For the same substance, the “Minimal Inhibitory Concentration MIC (%) P. vulgaris” value in assay [5] (NCTC 4635, 24 h, pH 7) was 0.5%. In assay [6] (NCTC 6749, 24 h, pH 7), the “Minimal Inhibitory Concentration MIC (%) P. aeruginosa” value came out at 1.0%. In addition, in assay [3] (NCTC 10231, 24 h), the “Minimal Inhibitory Concentration MIC (%) C. albicans” value turned out to be 0.25%.
